# Patent US20100099693A1, “NEW COMBINATION FOR USE IN THE TREATMENT OF INFLAMMATORY DISORDERS” (priority 2007, published 2010)
# Columns and labels:
# [1] = test system: Rat aortic smooth muscle cells (RASMC); assay: Rat aortic smooth muscle cell proliferation assay (WST-1 reagent, 5% FBS stimulated); assay type: cell-based; settings: single drug, 48 hours, F-12/5% FBS; for inhibition at 0.1 µM: final concentration 0.1 μM; for inhibition at 0.1 µM / inhibition at 1 µM / inhibition at 10 µM: mean n=3; for inhibition at 1 µM: final concentration 1 μM; for inhibition at 10 µM: final concentration 10 μM
# Procedure: Rat aortic smooth muscle cells (RASMC) were isolated as previously described (Hellin et al, Arterioscler. Thromb. Vasc. Biol., 17, 1977 (1997)). The cells were cultired (37° C./5% CO2) in Ham's medium F-12 supplemented with 10% fetal bovine serum (FBS), 50 μg/mL L-ascorbic acid, 50 μg/mL streptomycin and 50 IU/mL penicillin (F-12/10% FBS), grown to confluence, serially passaged by trypsinization, and used in experiments after 2-7 passages. The RASMC were seeded in 96-well plates at a density of approximately 5×10^3 cells per well in F-12/10% FBS (100 μl per well). After 72 hours, the cells were synchronized in G0/G1 phase by starvation in Ham's medium F-12 supplemented with 0.1% bovine serum albumin (BSA), 50 μg/mL L-ascorbic acid, 50 μg/mL streptomycin and 50 IU/mL penicillin (F-12/0.1% BSA) for 48 hours. After the starvation, the cells were 70-80% confluent. The experiment was then started by changing to F-12 medium containing 5% FBS, 50 μg/mL L-ascorbic acid, 50 μg/mL streptomycin and 50 IU/mL penicillin (F-12/5% FBS), without (positive control cells) or with the test drugs (drug treated cells) as described below. For comparison, some cells remained in F-12/0.1% BSA (negative control cells).
# Proliferation of the RASMC cells was measured using the Cell Proliferation Reagent WST-1 (Roche Diagnostics Scandinavia AB, Bromma, Sweden). The WST-1 reagent is designed to be used for spectrophotometric quantification of e.g. cell growth in proliferation assays and was used according to the manufacturers' instructions. The wavelength for measuring absorbance was 450 nm and the absorbance of all untreated positive control cells exposed to the WST-1 reagent was between 1 and 2.7.
# Stock solutions of ramatroban (sodium salt; see Example 19 above) and rosuvastatin (sodium salt; see Example 19 above) were made in sterile saline.
# 48 hours after start of the experiment as described above, the mean positive control RASMC proliferation (measured using the WST-1 reagent) was 225% of that of the negative control RASMC (n=12 in both groups). The effects of ramatroban and/or rosuvastatin (added to cells in F-12/5% FBS at the start of the experiment) on RASMC proliferation were studied 48 hours after start of the experiment.
# The procedure described in Example 22 was repeated for atorvastatin (sodium salt; see Example 20 above).
# The procedure described in Example 22 was repeated for simvastatin (sodium salt; see Example 21 above).
# MonoMac-6 (MM6) cells = assay: MonoMac-6 macrophage proliferation assay (WST-1 reagent); assay type: cell-based, human; settings: single drug, 48 hours; for inhibition at 10 µM / inhibition at 30 µM / inhibition at 100 µM: Homo sapiens, MONO-MAC-6, WST-1, mean n=4; for inhibition at 10 µM: final concentration 10 μM; for inhibition at 30 µM: final concentration 30 μM; for inhibition at 100 µM: final concentration 100 μM
# Procedure: Cells from the human macrophage cell-line MonoMac-6 (MM6) (Ziegler-Heitbrock et al, Int. J. Cancer, 41, 456 (1988)) were cultured (37° C./5% CO2) in RPMI-1640 medium supplemented with 1 mM sodium pyruvate, 1× nonessential amino acids, 1-100 μg/mL insulin, 1 mM oxalacetic acid, 100 units/mL penicillin, 100 μg/mL streptomycin and 10% (v/v) fetal bovine serum. At the start of the experiment, MM6 cells were seeded in 96-well plates at a density of 1×10^5 cells/mL (100 μl per well). Proliferation of the MM6 cells was measured using the Cell Proliferation Reagent WST-1 (Roche Diagnostics Scandinavia AB, Bromma, Sweden) or by cell counting using a microscope. The WST-1 reagent is designed to be used for spectrophotometric quantification of e.g. cell growth in proliferation assays and was used according to the manufacturers' instructions. The wavelength for measuring absorbance was 450 nm and the absorbance of all untreated control cells exposed to the WST-1 reagent was between 1.0 and 2.5. Stock solutions of ramatroban (sodium salt; ramatroban was purchased from Cayman Chemical, Ann Arbor, Mich., USA as free acid and converted to sodium salt by adding one equivalent of aqueous NaOH) and rosuvastatin (sodium salt; rosuvastatin was extracted and purified from commercially available Crestor® tablets and isolated as sodium salt as described in Bioorganic & Medicinal Chemistry, Vol. 5, No. 5, pp 437-444, 1997) were made in sterile saline.
# The effects of ramatroban and/or rosuvastatin (added at the start of the experiments) on MM6 cell proliferation were studied 48 hours after start of the experiments using the WST-1 reagent described above.
# The procedure described in Example 19 was repeated for atorvastatin (sodium salt; received as atorvastatin calcium as a gift from Biocon, Ltd., Bangalore, India and converted into sodium salt by firstly converting the calcium salt into the free acid by addition of aqueous hydrochloric acid and then, after isolation via extraction, adding one equivalent of aqueous NaOH).
# The procedure described in Example 19 was repeated for simvastatin (sodium salt; simvastatin was received as the lactone as a gift from Biocon, Ltd., Bangalore, India and isolated as the sodium salt following lactone ring opening via hydrolysis using one equivalent of NaOH in water and ethanol at 60° C.).
Structure (SMILES),inhibition at 0.1 µM [1],inhibition at 1 µM [1],inhibition at 10 µM [1],inhibition at 10 µM (MonoMac-6 (MM6) cells),inhibition at 30 µM (MonoMac-6 (MM6) cells),inhibition at 100 µM (MonoMac-6 (MM6) cells),"inhibition at 100 µM ([1]; final concentration 100 μM, mean n=6)","effect on MM6 proliferation (in words) (MonoMac-6 (MM6) cells; 10 μM, data not shown)"
CC(C)c1c(C(=O)Nc2ccccc2)c(-c2ccccc2)c(-c2ccc(F)cc2)n1CC[C@@H](O)C[C@@H](O)CC(=O)O [atorvastatin],27.4%,0%,18.9%,16.8%,27.8%,71.7%,–,–
O=C(O)CCn1c2c(c3ccccc31)C[C@H](NS(=O)(=O)c1ccc(F)cc1)CC2 [ramatroban],–,–,–,–,–,15.2%,11.9%,effect similar to that of 100 μM of ramatroban
CC(C)c1nc(N(C)S(C)(=O)=O)nc(-c2ccc(F)cc2)c1/C=C/[C@@H](O)C[C@@H](O)CC(=O)O [rosuvastatin],5.3%,0%,21.7%,11.5%,31.2%,70.1%,–,–
CCC(C)(C)C(=O)O[C@H]1C[C@@H](C)C=C2C=C[C@H](C)[C@H](CC[C@@H]3C[C@@H](O)CC(=O)O3)[C@H]21 [simvastatin],23.8%,0%,74.3%,21.3%,68.1%,85%,–,–
